From US4163799A, “Psychostimulant compounds” (Union Chimique Continentale U.C.C., priority 1975, dated 1979)
Counter-ions that a name gives are not always drawn.

Key:
[1] = Motor activity in the mouse (photoelectric cell actimeter); assay type: in vivo, mouse (male, Swiss NMRI)
Procedure: (§1) All the experiments described below were carried out on male rats weighing between 170 and 220 g (Wistar AF strain) and male mice weighing between 18 and 23 g (Swiss NMRI strain), unless indicated to the contrary. All the experiments were conducted in a constant-temperature laboratory (22±1° C.). […] Unless indicated to the contrary 10 animals per batch were always used.
The motor activity was determined with the aid of photoelectric cell actimeters (Boissier and Simon, Arch. int. Pharmacodyn. 1965, 158, 212-221). Twelve animals per batch were always used as a minimum.

[2] = Antireserpine activity test, mouse; assay type: in vivo, mouse (male, Swiss NMRI); conditions: 8, 16, 32 mg/kg orally, reserpine 2.5 mg/kg IP 4 hours before
Procedure: as §1

[3] = Interaction with convulsants: cardiazol; assay type: in vivo; conditions: 64 mg/kg orally 30 minutes before cardiazol 160 mg/kg SC
Procedure: as §1

[4] = 64 mg/kg IP, ** significant at 0.005

CC(O)CC(c1ccccc1)C(C(=O)O)c1ccccc1 (stereo not drawn) [NaAHDH, Sodium Salt of 5-Hydroxy-2,3-Diphenyl-Hexanoic Acid]
number of beams interrupted, 30 + 5 min ([1]; 16 mg/kg IP): 44
number of beams interrupted, 30 + 10 min ([1]; 16 mg/kg IP): 90
number of beams interrupted, 30 + 15 min ([1]; 16 mg/kg IP): 133
number of beams interrupted, 30 + 20 min ([1]; 16 mg/kg IP): 163
number of beams interrupted, 30 + 25 min ([1]; 16 mg/kg IP): 195
number of beams interrupted, 30 + 30 min ([1]; 16 mg/kg IP, * significant at 0.05): 214 ± 28
number of beams interrupted, 30 min ([1]; 16 mg/kg IP): 376 ± 31
number of beams interrupted, 30 + 5 min ([1]; 32 mg/kg IP): 65
number of beams interrupted, 30 + 10 min ([1]; 32 mg/kg IP): 118
number of beams interrupted, 30 + 15 min ([1]; 32 mg/kg IP): 183
number of beams interrupted, 30 + 20 min ([1]; 32 mg/kg IP): 242
number of beams interrupted, 30 + 25 min ([1]; 32 mg/kg IP): 285
number of beams interrupted, 30 + 30 min ([1]; 32 mg/kg IP, test t 2,395): 325 ± 26
number of beams interrupted, 30 min ([1]; 32 mg/kg IP): 450 ± 39
number of beams interrupted, 30 + 5 min ([1]; 64 mg/kg IP): 90
number of beams interrupted, 30 + 10 min ([1]; 64 mg/kg IP): 195
number of beams interrupted, 30 + 15 min ([1]; 64 mg/kg IP): 297
number of beams interrupted, 30 + 20 min ([1]; 64 mg/kg IP): 396
number of beams interrupted, 30 + 25 min ([1]; 64 mg/kg IP): 429
number of beams interrupted, 30 + 30 min [1, 4]: 558 ± 56
number of beams interrupted, 30 min [1, 4]: 580 ± 47
motor activity ([1]; 32 and 64 mg/kg ip, significant for the first 30 minutes, regular and constant up to 60th minute): increase in motor activity
modification of hyperthermia or drooping eyelid induced by reserpine [2]: no modification of hyperthermia or drooping eyelid induced by reserpine
latency of convulsions [3]: no decrease in the latency of convulsions
